The values below come from BindingDB's records for doi:10.1016/j.ejmech.2013.04.003 (Seoul National University, 2013).

Test [1] concerns the target T1, Transient receptor potential cation channel subfamily V member 1 (Homo sapiens, UniProt Q8NER1). The experiment in a line: Antagonist activity at human TRPV1 expressed in CHOK1 cells assessed as inhibition of capsaicin-induced activity by FLIPR assay.
Test [2] has as its target T1, Transient receptor potential cation channel subfamily V member 1. Briefly: Antagonist activity at human TRPV1 expressed in CHOK1 cells assessed as inhibition of pH 6 to 6.3-induced activity by FLIPR assay.

A word on the Ki: it is the equilibrium dissociation constant of an inhibitor or competing ligand from its target. A word on the IC50: it is the midpoint of a concentration-inhibition curve.

T1 sequence (Q8NER1 whole entry): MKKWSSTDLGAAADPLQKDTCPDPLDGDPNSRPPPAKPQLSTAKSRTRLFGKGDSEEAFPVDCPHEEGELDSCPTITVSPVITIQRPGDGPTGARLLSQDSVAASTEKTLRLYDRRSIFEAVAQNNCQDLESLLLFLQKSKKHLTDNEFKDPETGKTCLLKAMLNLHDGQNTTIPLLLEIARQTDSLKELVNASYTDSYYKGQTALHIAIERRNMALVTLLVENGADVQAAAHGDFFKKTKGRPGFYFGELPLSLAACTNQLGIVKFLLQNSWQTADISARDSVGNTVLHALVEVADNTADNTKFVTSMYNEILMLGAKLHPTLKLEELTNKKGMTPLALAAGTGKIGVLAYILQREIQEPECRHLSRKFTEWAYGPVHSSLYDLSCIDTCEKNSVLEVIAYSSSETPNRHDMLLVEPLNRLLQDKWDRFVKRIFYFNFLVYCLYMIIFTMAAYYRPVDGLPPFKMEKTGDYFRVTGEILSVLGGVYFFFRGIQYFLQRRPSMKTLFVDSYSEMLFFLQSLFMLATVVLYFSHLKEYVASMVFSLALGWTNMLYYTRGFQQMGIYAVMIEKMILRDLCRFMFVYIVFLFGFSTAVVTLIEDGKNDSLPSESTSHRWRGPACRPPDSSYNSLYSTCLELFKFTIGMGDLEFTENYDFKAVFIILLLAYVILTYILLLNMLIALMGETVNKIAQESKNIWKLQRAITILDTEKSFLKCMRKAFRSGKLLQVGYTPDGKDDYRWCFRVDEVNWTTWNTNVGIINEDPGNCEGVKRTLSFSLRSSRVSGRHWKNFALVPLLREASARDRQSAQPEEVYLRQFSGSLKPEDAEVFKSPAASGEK

For the compound `CC(C(=O)NCc1ccc(C(F)(F)F)nc1OCCCOc1ccccc1)c1ccc(NS(C)(=O)=O)c(F)c1` (configuration not stated), in test [1], the inhibition constant Ki was determined as 0.0015 µM. Further, the IC50 in test [2] is 0.161 µM.
